Like-named read-outs stand apart in the source and are kept apart here.
Assays:
CDK4/CyclinD1 = target: T1, CDK4/CyclinD1 (Homo sapiens, UniProt P11802); assay: Assay for inhibition of CDK4/CyclinD1 (Caliper microfluidic kinase assay); assay type: biochemical
T1 construct: purchased Thermofisher PR8064A
Protocol: The CDK4 enzyme assay for IC50 determination was performed as follows. Microfluidic kinase detection technology (Caliper) was used to monitor the phosphorylation of peptide substrate by CDK4/CyclinD1. The total reaction volume was 15 μL containing buffer A (100 mM HEPES (pH 7.5), 0.1% BSA, 0.01% Triton X-100, 1 mM DTT, 10 mM MgCl2, 10 μM Sodium Orthovanadate, 10 μM Beta-Glycerophosphate), 200 μM ATP, 1 nM CDK4/CyclinD1 (Thermofisher, PR8064A), 1 μM FL-34 (5-FAM-[…]), and the test compound at appropriate dilutions in DMSO. All components were added to the 384-well plate (Corning, 4514), and incubated at Room Temperature for 3 hours. The reaction was terminated by addition of 15 μL Stop Buffer (180 mM HEPES (pH 7.5), 20 mM EDTA, Coating-3 reagent (PerkinElmer, 760050)). The plate was then loaded on Caliper EZ Reader (EZ Reader II, PerkinElmer, HD-4HYSG2772), and the reaction mixtures including substrate and product were sipped into the microfluidic chip for separation and detection. The IC50 values of the test compound were determined by fitting the inhibition curves by 4 parameter sigmoidal dose-response model using the Xlfit5/GraphPad Prism 5 software.

CDK2/CyclinE1 = target: T2, CDK2/CyclinE1 (Homo sapiens, UniProt P24941); assay: Assay for inhibition of CDK2/CyclinE1 (Caliper microfluidic kinase assay); assay type: biochemical; settings: read-out: CDK2 IC50
T2 construct: purchased SignalChem C29-18G
Protocol: The CDK2 enzyme assay for IC50 determination was performed as follows. Microfluidic kinase detection technology (Caliper) was used to monitor the phosphorylation of peptide substrate by CDK2/CyclinE1. The total reaction volume was 15 μL containing buffer A (100 mM HEPES (pH 7.5), 0.1% BSA, 0.01% Triton X-100, 1 mM DTT, 10 mM MgCl2, 10 μM Sodium Orthovanadate, 10 μM Beta-Glycerophosphate), 100 μM ATP, 5 nM CDK2/CyclinE1 (SignalChem, C29-18G), 5 μM FL-18 (5-FAM-QSPKKG-NH2), and the test compound at appropriate dilutions in DMSO. All components were added to the 384-well plate (Corning, 4514), and incubate at Room Temperature for 3 hours. The reaction was terminated by addition of 15 μL Stop Buffer (180 mM HEPES (pH 7.5), 20 mM EDTA, Coating-3 reagent (PerkinElmer, 760050)). The plate was loaded on Caliper EZ Reader (EZ Reader II, PerkinElmer, HD-4HYSG2772), and the reaction mixtures including substrate and product were sipped into the microfluidic chip for separation and detection. The IC50 values of the test compound were determined by fitting the inhibition curves by 4 parameter sigmoidal dose-response model using the Xlfit5/GraphPad Prism 5 software.

T1 sequence (P11802 whole entry): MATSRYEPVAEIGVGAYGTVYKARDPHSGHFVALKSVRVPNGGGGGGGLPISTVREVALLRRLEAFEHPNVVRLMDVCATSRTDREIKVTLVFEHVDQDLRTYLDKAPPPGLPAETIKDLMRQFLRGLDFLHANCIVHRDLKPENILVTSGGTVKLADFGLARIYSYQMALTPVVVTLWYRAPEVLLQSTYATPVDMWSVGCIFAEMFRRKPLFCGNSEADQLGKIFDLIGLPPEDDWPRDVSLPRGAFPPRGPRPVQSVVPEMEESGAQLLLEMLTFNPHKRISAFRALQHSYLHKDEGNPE
T1 sequence (P24385 whole entry partner): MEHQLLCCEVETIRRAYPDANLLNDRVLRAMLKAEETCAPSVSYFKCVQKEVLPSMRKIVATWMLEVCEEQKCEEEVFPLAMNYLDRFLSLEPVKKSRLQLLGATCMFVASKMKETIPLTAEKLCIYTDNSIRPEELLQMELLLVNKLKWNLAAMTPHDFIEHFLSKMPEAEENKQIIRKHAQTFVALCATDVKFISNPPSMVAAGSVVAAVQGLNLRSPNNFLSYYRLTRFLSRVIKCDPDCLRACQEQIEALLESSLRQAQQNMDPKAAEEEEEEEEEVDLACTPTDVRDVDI

| Structure (SMILES) | IC50 (CDK4/CyclinD1; CDK4/CyclinD1, 200 μM ATP) | IC50 (CDK2/CyclinE1; CDK2/CyclinE1, 100 μM ATP) | IC50 (CDK4/CyclinD1; CDK4/CyclinD1) | IC50 (CDK2/CyclinE1; CDK2/CyclinE1) |
| --- | --- | --- | --- | --- |
| CC(C)c1cnc2cnc(-c3ccnc(Nc4ccc(N5CCNCC5=O)cn4)n3)cn12 [Synthetic Example 143] | 10 to 100 nM | > 1000 nM |  |  |
| COc1nc(-c2nc(Nc3ccc(N4CCOCC4=O)cn3)ncc2F)cc2c1nc(C)n2C1CCCC1O (stereo not shown) [compound 71] |  |  | 10 to 100 nM | > 1000 nM |
| COc1nc(-c2nc(Nc3ccc(N4CCOCC4=O)cn3)ncc2F)cc2c1nc(C)n2C(C)CO (stereo not shown) [compound 72] |  |  | 10 to 100 nM | > 1000 nM |
| COc1nc(-c2nc(Nc3ccc(N4CCOC4=O)cn3)ncc2F)cc2c1nc(C)n2C(C)C [compound 85] |  |  | 10 to 100 nM | > 1000 nM |
| CCN1CCN(c2ccc(Nc3ncc(F)c(-c4cc5c(nc(C)n5C(C)C)c(OC)n4)n3)nc2)C1=O [compound 89] |  |  | 10 to 100 nM | > 1000 nM |
| COc1nc(-c2nc(Nc3ccc(N4CCC5(CCNC5=O)CC4)cn3)ncc2F)cc2c1nc(C)n2C(C)C [compound 90] |  |  | 10 to 100 nM | > 1000 nM |
| COc1nc(-c2nc(Nc3ccc(N4CCOCC4C)cn3)ncc2F)cc2c1nc(C)n2C(C)C (stereo not shown) [compound 97] |  |  | 10 to 100 nM | > 1000 nM |
| CCN1CCN(c2ccc(Nc3ncc(F)c(-c4cc5c(nc(C)n5C(C)C)c(OC)n4)n3)nc2)CC1=O [compound 105] |  |  | 10 to 100 nM | > 1000 nM |
| COc1nc(-c2ccnc(Nc3ccn(CC4CCNCC4)n3)n2)cc2c1ncn2C(C)C [compound 108] | 10 to 100 nM | > 1000 nM |  |  |
| COc1nc(-c2nc(Nc3ccc(N4CCNC5(CC5)C4)cn3)ncc2F)cc2c1nc(C)n2C(C)C [compound 110] | 10 to 100 nM | > 1000 nM |  |  |
| COc1nc(-c2nc(Nc3ccc(C(=O)N4CCC(N)CC4)c(C)n3)ncc2F)cc2c1nc(C)n2C(C)C [compound 120] | 10 to 100 nM | > 1000 nM |  |  |
| COc1nc(-c2ccnc(Nc3ccc4c(n3)CCN(C(=O)CO)C4)n2)cc2c1ncn2C(C)C [compound 141] | 10 to 100 nM | > 1000 nM |  |  |
| COc1nc(-c2ccnc(Nc3ccc4c(n3)CCN(C(=O)CC#N)C4)n2)cc2c1ncn2C(C)C [compound 142] | 10 to 100 nM | > 1000 nM |  |  |
| CC(C)c1cnn2ccc(-c3ccnc(Nc4ccc(C(=O)N5CCC(N(C)C)CC5)cc4)n3)cc12 [compound 148] | < 10 nM | < 10 nM |  |  |
| CC(C)c1cnn2ccc(-c3ccnc(Nc4ccc(C(=O)N5CCC(O)CC5)cc4)n3)cc12 [compound 149] | 10 to 100 nM | < 10 nM |  |  |
| CC(C)c1cnn2ccc(-c3ccnc(Nc4ccc(C(=O)N5CCC(O)C5)cc4)n3)cc12 (stereo not shown) [compound 150] | < 10 nM | < 10 nM |  |  |
| CC(C)c1cnn2ccc(-c3ccnc(Nc4ccc(C(=O)N5CCC(N(C)C)C5)cc4)n3)cc12 (stereo not shown) [compound 151] | < 10 nM | < 10 nM |  |  |
| CC(C)c1cnn2ccc(-c3ccnc(Nc4ccc(C(=O)N5CCC(N(C)C)C5)cc4F)n3)cc12 (stereo not shown) [compound 152] | 10 to 100 nM | 10 to 100 nM |  |  |
| CC(C)c1cnn2ccc(-c3ccnc(Nc4ccc(C(=O)N5CC(O)C5)cc4)n3)cc12 [compound 153] | < 10 nM | < 10 nM |  |  |
| CC(C)c1cnn2ccc(-c3ccnc(Nc4ccc(C(=O)N5CC(N(C)C)C5)cc4)n3)cc12 [compound 154] | < 10 nM | < 10 nM |  |  |
| CC(C)c1cnn2ccc(-c3ccnc(Nc4ccc(N5CCC(N(C)C)CC5=O)cc4F)n3)cc12 (stereo not shown) [compound 180] | < 10 nM | < 10 nM |  |  |
| CN(C)C1CCN(c2ccc(Nc3nccc(-c4ccn5ncc(C(C)(C)C)c5c4)n3)c(F)c2)C(=O)C1 (stereo not shown) [compound 181] | < 10 nM | < 10 nM |  |  |

| Structure (SMILES) | IC50 (CDK4/CyclinD1; CDK4/CyclinD1, 200 μM ATP) | IC50 (CDK2/CyclinE1; CDK2/CyclinE1, 100 μM ATP) | IC50 (CDK4/CyclinD1; CDK4/CyclinD1) | IC50 (CDK2/CyclinE1; CDK2/CyclinE1) |
| --- | --- | --- | --- | --- |
| Cc1nn2ccc(-c3ccnc(Nc4ccc(S(N)(=O)=O)nc4)n3)cc2c1C(C)C [compound 182] | 10 to 100 nM | < 10 nM |  |  |
| Cc1cc(N2CCNCC2=O)ccc1Nc1nccc(-c2ccn3ncc(C(C)C)c3c2)n1 [compound 186] | 10 to 100 nM | < 10 nM |  |  |
| CC(C)c1cnn2ccc(-c3ccnc(Nc4cccc(N5CCNCC5=O)c4)n3)cc12 [compound 187] | 10 to 100 nM | 10 to 100 nM |  |  |
| CC(C)c1cnn2ccc(-c3ccnc(Nc4ccc(N5CCNCC5=O)cc4O)n3)cc12 [compound 188] | 10 to 100 nM | 10 to 100 nM |  |  |
| CNC1CN(C(=O)c2ccc(Nc3nccc(-c4ccn5ncc(C(C)C)c5c4)n3)cc2)C1 [compound 190] | < 10 nM | 10 to 100 nM |  |  |
| CC(C)c1cnn2ccc(-c3ccnc(Nc4ccc(N5CCC(C)(N)CC5=O)cc4Cl)n3)cc12 (stereo not shown) [compound 212] | < 10 nM | < 10 nM |  |  |
| COc1cc(N2CCCC(N)C2=O)ccc1Nc1nccc(-c2ccn3ncc(C(C)C)c3c2)n1 (stereo not shown) [compound 222] | 10 to 100 nM | 10 to 100 nM |  |  |
| CC(C)c1cnn2ccc(-c3ccnc(Nc4ccc(N5CCCC(N)C5=O)cc4F)n3)cc12 (stereo not shown) [compound 223] | < 10 nM | 10 to 100 nM |  |  |
| CC(C)c1cnn2ccc(-c3ccnc(Nc4ccc(N5CCNCC5=O)c(F)c4)n3)cc12 [compound 228] | < 10 nM | < 10 nM |  |  |
| CC(C)c1cnn2ccc(-c3ccnc(Nc4ccc(N5CCNCC5=O)c(F)c4F)n3)cc12 [compound 229] | < 10 nM | < 10 nM |  |  |
| CCNC1CCN(c2ccc(Nc3nccc(-c4ccn5ncc(C(C)C)c5c4)n3)c(F)c2)C(=O)C1 (stereo not shown) [compound 230] | < 10 nM | < 10 nM |  |  |
| CNC1CCCN(c2ccc(Nc3nccc(-c4ccn5ncc(C(C)C)c5c4)n3)c(F)c2)C1=O (stereo not shown) [compound 231] | < 10 nM | 10 to 100 nM |  |  |
| CC(C)(C)c1cnn2ccc(-c3ccnc(Nc4ccc(N5CCCC(N)C5=O)cc4F)n3)cc12 (stereo not shown) [compound 232] | < 10 nM | < 10 nM |  |  |
| CC(C)c1cnn2ccc(-c3ccnc(Nc4ccc(N5CCC(NCCF)CC5=O)cc4)n3)cc12 (stereo not shown) [compound 233] | < 10 nM | < 10 nM |  |  |
| CCN1CCN(Cc2ccc(Nc3ncc(F)c(N4CCc5ncn(C(C)C)c5C4)n3)nc2)CC1 [compound 251] | 10 to 100 nM | > 1000 nM |  |  |
| CC(C)n1cnc2c1CN(c1nc(Nc3ccc(S(N)(=O)=O)nc3)ncc1F)CC2 [compound 254] | 10 to 100 nM | < 10 nM |  |  |
| CC(C)n1cnc2c1CN(c1nc(Nc3ccc4c(c3)CS(=O)(=O)C4)ncc1F)CC2 [compound 255] | < 10 nM | < 10 nM |  |  |
| CC(C)n1cnc2c1CN(c1nc(Nc3ccc(N4CCNCC4=O)cc3F)ncc1F)CC2 [compound 256] | < 10 nM | < 10 nM |  |  |
| CC1(C)COc2c(F)cc(-c3ccnc(Nc4ccc(N5CCCC(N)C5=O)nc4)n3)cc21 (stereo not shown) [compound 264] | < 10 nM | 10 to 100 nM |  |  |
| CCN1CCN(c2ccc(Nc3nccc(-c4cc5c(ncn5C(C)C)c(F)n4)n3)nc2)C(=O)C1 [compound 274] | < 10 nM | 100 to 1000 nM |  |  |
| CC(C)n1cnc2c(F)nc(-c3ccnc(Nc4ccc(N5CCC(C)(N)CC5=O)cc4Cl)n3)cc21 (stereo not shown) [compound 291] | < 10 nM | < 10 nM |  |  |
| COc1cc(N2CCC(N(C)C)CC2=O)ccc1Nc1nccc(-c2cc3c(ncn3C(C)C)c(F)n2)n1 (stereo not shown) [compound 296] | < 10 nM | < 10 nM |  |  |
